Test results: article PMC5799307, “Creation of a long-acting nanoformulated dolutegravir” (Nature Communications, 2018)

Experiments:
MDM = test: LDH cytotoxicity assay in MDM; assay type: cell-based, human; conditions: 24 h, 400 µM
[1] = Ex vivo cleavage kinetics of MDTG in mouse whole blood; assay type: in vitro ADME; conditions: after 60 min
Protocol: A lipophilic and hydrophobic modified DTG prodrug (called MDTG) was synthesized through myristoylation of the parent drug hydroxyl group. Initially, DTG was dried by co-evaporation from anhydrous pyridine then resuspended in anhydrous DMF and cooled to 0 °C under argon. 2-equivalents DIEA were used to deprotonate the 7-hydroxyl group of DTG, which was then immediately reacted with 2 equivalents myristoyl chloride for 24 h. The resultant product was purified by silica gel column chromatography using an initial mobile phase of 4:1 ethyl acetate: hexanes for 12 fractions, then 9:1 ethyl acetate: hexanes for the remainder. Once purified, fractions containing the UV active prodrug were dried and precipitated from diethyl ether. The precipitate was collected by centrifugation at 3500 r.p.m. for 15 min and dried under vacuum, while the supernatant was discarded. MDTG was synthesized at a final drug yield of 82.8%. Proton nuclear magnetic resonance (^1H NMR), carbon nuclear magnetic resonance (^13C NMR), and Fourier-transform infrared (FTIR) spectroscopy, positive electrospray ionization mass spectroscopy (ESI-MS), and powder X-ray diffraction (XRD) were used to characterize the structure of MDTG. […] ESI-MS specifics (m/z): calculated for C34H45F2N3O6, 629.33 (100%), 630.33 (36.8%), 631.33 (3.9%); found, 630.30. […] The aqueous solubility of DTG and MDTG was evaluated by adding excess drug to water at room temperature then mixing it overnight. […] Solubilized drug in the supernatant was extracted in methanol and measured using a Waters ACQUITY ultra performance liquid chromatography (UPLC) H-Class System with TUV detector and Empower 3 software (Milford, MA). For DTG and MDTG quantitation, drug extracts were separated on a Phenomenex Kinetex 5 μm C18 column (150 × 4.6 mm) (Torrance, CA) using either 65% 50 mM KH2PO4, pH 3.2/35% ACN (DTG) or 90% ACN/10% water (MDTG) with a flow rate of 1.0 mL/min and detected at 254 nm and 230 nm, respectively. Drug content was quantitated by comparison of peak area to those of known standards (0.05–50 µg/mL). Ex vivo cleavage kinetics of MDTG was assessed in mouse whole blood. […]

[2] = Aqueous solubility (excess drug in water, room temperature, overnight, UPLC); assay type: physicochemical
Protocol: A lipophilic and hydrophobic modified DTG prodrug (called MDTG) was synthesized through myristoylation of the parent drug hydroxyl group. Initially, DTG was dried by co-evaporation from anhydrous pyridine then resuspended in anhydrous DMF and cooled to 0 °C under argon. 2-equivalents DIEA were used to deprotonate the 7-hydroxyl group of DTG, which was then immediately reacted with 2 equivalents myristoyl chloride for 24 h. The resultant product was purified by silica gel column chromatography using an initial mobile phase of 4:1 ethyl acetate: hexanes for 12 fractions, then 9:1 ethyl acetate: hexanes for the remainder. […] ESI-MS specifics (m/z): calculated for C34H45F2N3O6, 629.33 (100%), 630.33 (36.8%), 631.33 (3.9%); found, 630.30. […] The aqueous solubility of DTG and MDTG was evaluated by adding excess drug to water at room temperature then mixing it overnight. […] Solubilized drug in the supernatant was extracted in methanol and measured using a Waters ACQUITY ultra performance liquid chromatography (UPLC) H-Class System with TUV detector and Empower 3 software (Milford, MA). For DTG and MDTG quantitation, drug extracts were separated on a Phenomenex Kinetex 5 μm C18 column (150 × 4.6 mm) (Torrance, CA) using either 65% 50 mM KH2PO4, pH 3.2/35% ACN (DTG) or 90% ACN/10% water (MDTG) with a flow rate of 1.0 mL/min and detected at 254 nm and 230 nm, respectively. […]

Row | MDTG cleaved ([1]; after acetonitrile (ACN) addition) | MDTG hydrolyzed ([1]; blood diluted ten-fold) | MDTG hydrolyzed ([1]; blood spiked with an esterase inhibitor) | MDTG cleaved ([1]; whole blood, room temperature) | decrease in aqueous solubility compared to DTG [2] | Structure (SMILES) | cytotoxicity by LDH (MDM)
1 |  |  |  |  |  | C[C@@H]1CCO[C@H]2Cn3cc(C(=O)NCc4ccc(F)cc4F)c(=O)c(O)c3C(=O)N12 [DTG, dolutegravir] | changes in cell vitality
2 | 21.9% | 88.7% | 15.2% | 79.9% | 8.7 fold | CCCCCCCCCCCCCC(=O)Oc1c2n(cc(C(=O)NCc3ccc(F)cc3F)c1=O)C[C@@H]1OCC[C@@H](C)N1C2=O [MDTG] | 
